Assay results taken from US6992079B2, “Substituted 11-phenyl-dibenzazepine compounds useful for the treatment or prevention of diseases characterized by abnormal cell proliferation” (President Fellows of Harvard College, priority 1997, dated 2006).
Like-named read-outs stand apart in the source and are kept apart here.

Columns and labels:
SF-295 = test: In-Vitro Testing SRB panel: CNS Cancer; type: cell-based; settings: SF-295, 48 h
NCI-H226 = type: cell-based; settings: NCI-H226, 48 h
MALM-3M = test: In-Vitro Testing SRB panel: Melanoma; type: cell-based; settings: 48 h
UACC-257 = test: In-Vitro Testing SRB panel: Melanoma; type: cell-based; settings: UACC-257, 48 h
HS 578T = test: In-Vitro Testing SRB panel: Breast Cancer; type: cell-based; settings: 48 h
[1] = test system: SU.86.86 pancreatic adenocarcinoma; test: Mouse xenograft tumor growth; type: in vivo, nude mice; settings: SU.86.86 pancreatic adenocarcinoma mouse xenograft
RXF 393 = test: In-Vitro Testing SRB panel: Renal Cancer; type: cell-based; settings: RXF 393, 48 h
NCI-H522 = type: cell-based; settings: NCI-H522, 48 h
[2] = test system: H460 large cell lung carcinoma; test: Mouse xenograft tumor growth; type: in vivo, CD-1 nude mice
SW-620 = test: In-Vitro Testing SRB panel: Colon Cancer; type: cell-based; settings: SW-620, 48 h
[3] = Homo sapiens, read-out: LC50 (the source's name)

O=C(c1ccc([N+](=O)[O-])cc1)N1Cc2ccccc2C(c2ccccc2Cl)c2ccccc21 (stereo not drawn) [Compound 28, N-(4′-Nitrobenzoyl)-11-(2′-chlorophenyl)-5,6-dihydro-11H-dibenz[b,e]azepine]
Percent Growth (SF-295; log10 conc −7.0 Molar): 75% | Percent Growth (SF-295; log10 conc −8.0 Molar): 88% | GI50 (NCI-H226; Homo sapiens): 7.96 µM | CC50 (NCI-H226; [3]): > 100 µM | TGI (NCI-H226): >1.00E−04 Molar | Percent Growth (NCI-H226; log10 conc −4.0 Molar): 33% | Percent Growth (NCI-H226; log10 conc −5.0 Molar): 48% | Percent Growth (NCI-H226; log10 conc −6.0 Molar): 66% | Percent Growth (NCI-H226; log10 conc −7.0 Molar): 83% | Percent Growth (NCI-H226; log10 conc −8.0 Molar): 90% | GI50 (MALM-3M; Homo sapiens): 49.6 µM | CC50 (MALM-3M; Homo sapiens, MALM-3M, read-out: LC50 (the source's name)): > 100 µM | TGI (MALM-3M; MALM-3M): >1.00E−04 Molar | Percent Growth (MALM-3M; MALM-3M, log10 conc −4.0 Molar): 39% | Percent Growth (MALM-3M; MALM-3M, log10 conc −5.0 Molar): 76% | Percent Growth (MALM-3M; MALM-3M, log10 conc −6.0 Molar): 79% | Percent Growth (MALM-3M; MALM-3M, log10 conc −7.0 Molar): 85% | Percent Growth (MALM-3M; MALM-3M, log10 conc −8.0 Molar): 92% | GI50 (UACC-257; Homo sapiens): 0.441 µM | CC50 (UACC-257; [3]): > 100 µM | TGI (UACC-257): >1.00E−04 Molar | Percent Growth (UACC-257; log10 conc −4.0 Molar): 6% | Percent Growth (UACC-257; log10 conc −5.0 Molar): 9% | Percent Growth (UACC-257; log10 conc −6.0 Molar): 35% | Percent Growth (UACC-257; log10 conc −7.0 Molar): 78% | Percent Growth (UACC-257; log10 conc −8.0 Molar): 81% | TGI (HS 578T; HS 578T): >1.00E−04 Molar | Percent Growth (HS 578T; HS 578T, log10 conc −4.0 Molar): 42% | Percent Growth (HS 578T; HS 578T, log10 conc −5.0 Molar): 121% | Percent Growth (HS 578T; HS 578T, log10 conc −6.0 Molar): 125% | Percent Growth (HS 578T; HS 578T, log10 conc −7.0 Molar): 187% | Percent Growth (HS 578T; HS 578T, log10 conc −8.0 Molar): 193% | GI50 (HS 578T; Homo sapiens, Hs-578T): 80.2 µM | CC50 (HS 578T; Homo sapiens, HS 578T, read-out: LC50 (the source's name)): > 100 µM | tumor growth [1]: significantly inhibited tumor growth | GI50 (RXF 393; Homo sapiens): 1.39 µM | CC50 (RXF 393; [3]): > 100 µM | TGI (RXF 393): 7.75E−06 Molar | Percent Growth (RXF 393; log10 conc −4.0 Molar): −12% | Percent Growth (RXF 393; log10 conc −5.0 Molar): −7% | Percent Growth (RXF 393; log10 conc −6.0 Molar): 60% | Percent Growth (RXF 393; log10 conc −7.0 Molar): 98% | Percent Growth (RXF 393; log10 conc −8.0 Molar): 99% | GI50 (NCI-H522; Homo sapiens): 0.337 µM | CC50 (NCI-H522; [3]): > 100 µM | TGI (NCI-H522): >2.72E−05 Molar | Percent Growth (NCI-H522; log10 conc −4.0 Molar): −16% | Percent Growth (NCI-H522; log10 conc −5.0 Molar): 12% | Percent Growth (NCI-H522; log10 conc −6.0 Molar): 13% | Percent Growth (NCI-H522; log10 conc −7.0 Molar): 91% | Percent Growth (NCI-H522; log10 conc −8.0 Molar): 99% | tumor growth [2]: significantly inhibited tumor growth | GI50 (SW-620; Homo sapiens): 7.13 µM | CC50 (SW-620; [3]): > 100 µM | TGI (SW-620): >1.00E−04 Molar | Percent Growth (SW-620; log10 conc −4.0 Molar): 42% | Percent Growth (SW-620; log10 conc −5.0 Molar): 47% | Percent Growth (SW-620; log10 conc −6.0 Molar): 65% | Percent Growth (SW-620; log10 conc −7.0 Molar): 94% | Percent Growth (SW-620; log10 conc −8.0 Molar): 112%
